Laboratory results published in patent US20230406803A1, “TROPOLONE DERIVATIVES AND TAUTOMERS THEREOF FOR IRON REGULATION IN ANIMALS” (Kinesid Therapeutics, Inc, priority 2020, published 2023).

Test: Ligand facilitated Fe(III) efflux from liposomes
Type: biochemical
Parameters: unit not given here
Conditions: efflux rate k at 10 μM ligand concentration; ferrozine absorbance 562 nm, 120 min kinetic read
Description: Assay 1: Ligand Facilitated Fe(III) Efflux from Liposomes
Preparation of POPC (1 palmitoyl-2-oleoyl-sn-glycero-3 phosphocholine): Cholesterol Liposomes
A 1M buffer solution of MES and Tris was prepared by dissolving 121.14 grams of Tris base and 213.25 grams of MES hydrate in 500 mL of MilliQ water and adjusted to pH7.0 using an […] HCl solution before bringing the total volume of the solution to 1 L. A 500 mM solution of FeCl3 was prepared by dissolving 0.811 grams of anhydrous FeCl3 in 10 mL of a 0.1M H2SO4 aqueous solution. Inside buffer is prepared in a 50 mL falcon tube, which was added with 25 mL of MilliQ water, 1.61 g of sodium citrate, 1.5 mL of the above FeCl3 solution, and 2.5 mL of the 1M MES/Tris HCl buffer (pH=7.0), and finally additional MilliQ H2O to bring to a 50 mL final volume.
Lipid solution is prepared by dissolving 206.9 mg of POPC (1-palmitoyl-2-oleoyl-sn-glycero-3-phosphocholine) and 8.6 mg of cholesterol in 10 mL of ethanol.
The lipids solution and the inside buffer solution are independently loaded into 10 mL luer lock syringes for loading into a virgin cartridge on a Precision Nanosystems NanoAssembler to prepare unilamaller liposomes with the following parameters: 7.5 mL total volume, 1.5:1 mixing ratio of inside buffer:lipids solution, 8 mL/min flow rate, ambient temperature, 0.35 mL start waste, and 0.05 mL of end waste. 7.5 mL of liposomes is harvested for purification on a 6-inch long, 1-inch diameter Sephadex G-50 column wetted in 600 mM sodium ascorbate and 50 mM MES/Tris HCl pH 7.0 buffer. This buffer also serves as the column running buffer. The crude liposome solution is carefully loaded with minimal volume of running buffer above the top of the Sphadex, allowed to enter the matrix, and the column is run with the continued addition of running buffer. The eluting liposomes, observed as a milky and turbid solution, are collected until free iron begins to elute (observed as a deep purple color) and the fractions are pooled for phosphorus quantitation.
Determination of Phosphorus Content:
Phosphorus content of eluted liposomes was determined by the process outlined below. 10 μL of liposome elution and a running buffer blank are added to a 5 mL glass vial containing 450 μL of a 8.9 M aqueous H2SO4 solution, the mixture is heated to 225° C. for 25 minutes in an aluminum heat block to hydrolyze POPC and cooled for 5 minutes. 200 μL of a 30% hydrogen peroxide aqueous solution is added to each vial and heated to 225° C. for 25 minutes. After cooling, the phosphorus content was determined using an Abcam Phosphate Assay kit, with buffer subtracted phosphorus levels determined against a standard curve of phosphate included in the kit. Liposomes were diluted to 1 mM phosphate in Running Buffer for use in assays after accounting for dilutions made during phospholipid digestion.
Determination of the Iron Transporting Rate Constant of the Ligands:
Determination of the rate at which a small molecule ligand liberates (transport) Ferric iron from liposomes is performed in clear bottom black 384-well plates on a Spectramax i3x set to read the absorbance at 562 nm in the kinetic mode every 60 seconds for 120 minutes. 1 μL of serially diluted DMSO stock solution of a small molecule ligand is added to wells in triplicate to give the final concentrations of 40, 20, 10, 5, 2.5, and 1.25 uM of the ligand at 80 μL final volume, followed by addition of 1 μL of 100 mM Ferrozine in water to give a final concentration of 1 mM ferrozine. 78 μL of liposomes diluted to 1 mM phosphorus in running buffer is added to wells as quickly as possible (using a digital repeater multichannel pipette) with the kinetic read initiated as rapidly as possible after addition of liposomes to all wells. Typically, eight compounds at six concentrations are tested in triplicate simultaneously. […]

Row | SMILES | Liposome Fe transport kefflux at 10 μM
1 | COc1ccc(O)c(=O)cc1 | 5-7.5
2 | Cc1cccc(C2CCCCO2)c(O)c1=O (stereo not drawn) | <.1
3 | O=c1cccc(C2CC3CC3C2)cc1O (stereo not drawn) | 0.1-5
4 | O=c1ccccc(C2CC3CC3C2)c1[O-].[Na+] (stereo not drawn) | 0.1-5
5 | CC1(C)CCC(c2ccc(O)c(=O)cc2)C1 (stereo not drawn) | 0.1-5
6 | O=c1cccc(C2CCC3(CC2)CC3)cc1O | 0.1-5
7 | Cc1cccc(C2CCCO2)c(O)c1=O (stereo not drawn) | 10-25
8 | O=c1cccc(OC2CCC2)cc1O | 0.1-5
9 | O=c1ccccc(OC2CCCC2)c1O | 7.5-10
10 | CC(C)c1cccc(=O)c(S)c1 | 0.1-5
11 | CC(C)c1cccc(S)c(=O)c1 | 0.1-5
12 | O=c1c(F)cccc(OC2CCC2)c1O | 10-25
13 | O=c1ccc(OC2CCCC2)ccc1O | 5-7.5
14 | O=c1cccc2c(c1O)OCCC2 | 5-7.5
15 | O=c1c(F)cccc(C2CC2)c1O | 7.5-10
16 | COC1CCCC1c1ccccc(=O)c1O (stereo not drawn) | 5-7.5
17 | Cc1coc2c(O)c(=O)cccc12 | 7.5-10
18 | O=c1c(F)cccc(OC2CCCC2)c1O | 7.5-10
19 | O=c1c(F)cccc(C2CCCCO2)c1O (stereo not drawn) | 5-7.5
20 | O=c1c(O)ccc(C2CC2)cc1F | 10-25
21 | O=c1ccc(F)ccc1O | 7.5-10
22 | O=c1ccccc(CC2COC2)c1O | <0.1
23 | CC1(c2ccc(O)c(=O)cc2)CC1 | 0.1-5

Row | SMILES | Liposome Fe transport kefflux at 10 μM
24 | CC(C)c1ccc(F)cc(O)c1=O | 0.1-5
25 | Cc1cc(F)ccc(=O)c1O | 5-7.5
26 | O=c1ccc(F)cc(C2CCCO2)c1O (stereo not drawn) | 5-7.5
27 | O=c1c(O)ccc(OC2CCCC2)cc1F | 5-7.5
28 | O=c1cccc(F)cc1O | 0.1-5
29 | CCc1ccc(F)c(=O)c(O)c1 | 0.1-5
30 | CC(C)c1cc(F)ccc(=O)c1O | 0.1-5
31 | O=c1ccc(F)cc(C2CCCCO2)c1O (stereo not drawn) | 0.1-5
32 | O=c1ccc(OC2CC3(CC3)C2)ccc1O | 0.1-5
33 | O=c1ccccc(OCC2CCC2)c1O | 5-7.5
34 | O=c1c(F)cccc(OC2CC2)c1O | 0.1-5
35 | CC1(c2ccc(O)c(=O)c(F)c2)CC1 | 5-7.5
36 | O=c1c(F)cccc(OC2CC3(CC3)C2)c1O | 0.1-5
37 | O=c1ccc(C(CO)Cc2ccccc2)ccc1O (stereo not drawn) | 0.1-5
38 | O=c1ccc(F)cc(C2CCOCC2)c1O | 7.5-10
39 | O=c1ccc(F)cc(OC2CCC2)c1O | 0.1-5
40 | Cc1cc(Cl)ccc(=O)c1O | 5-7.5
41 | O=c1cccc(OC2CC3(CC3)C2)cc1O | 5-7.5
42 | C[C@@H]1CCC(c2ccccc(=O)c2O)O1 (mixture of isomers) | 5-7.5
43 | CC1CCC(c2ccccc(=O)c2O)O1 (racemic) | 5-7.5
44 | O=c1cccc(O[C@H]2CCOC2)cc1O (stereo in doubt) | 5-7.5
45 | C[C@@H](Oc1ccccc(=O)c1O)C1CC1 (stereo in doubt) | 5-7.5
46 | C[C@H](Oc1ccccc(=O)c1O)C1CC1 (stereo in doubt) | 5-7.5

Test: Mouse 6-hour PK study
Conditions: mouse, in vivo
From the text: Useful such assays include, but are not limited to e.g., those measurements made in PK studies, such as rodent and non-human primate PK studies, including e.g., mouse (such as mouse 6-hour PK studies), rat PK studies, cynomolgus or rhesus PK studies, or the like. Useful measurements obtained in such PK studies include but are not limited to e.g., maximum concentration (Cmax) reflecting the “peak” of a drug observed after its administration that can reflect not only the rate but also the extent of absorption, area under the curve (AUC) representing the area under the plot of tissue (e.g., plasma) concentration against time after drug administration which is of particular use in estimating bioavailability of drugs and drug total clearance, half-life (t1/2) or the period of time required for the concentration or amount of drug to be reduced to exactly one-half of a given concentration or amount that indicates the persistence of the drug in its volume of distribution, and the like.
Such assessments included human and mouse liver microsomal stability assays as well as 6-hour mouse PK studies.

Row | AUC(0-t) [ng·h/mL] | Cmax [ng/mL] | half-life [h] | SMILES | mouse 6-hour PK properties as compared to hinokitiol
47 | 500 to 1500 | 500 to 1500 | 1.25 to 4.99 | O=c1cccc(C2CC3CCC(C2)O3)cc1O (stereo not drawn) [Ex. 6, 4-(8-oxabicyclo[3.2.1]octan-3-yl)-2-hydroxycyclohepta-2,4,6-trien-1-one] | one or more improved mouse 6-hour PK properties as compared to hinokitiol
48 | 500 to 1500 | 500 to 1500 | 1.25 to 4.99 | O=c1ccccc(C2CCOCC2)c1O [Ex. 8, 2-hydroxy-3-(tetrahydro-211-pyran-4-yl)cyclohepta-2,4,6-trien-1-one] | one or more improved mouse 6-hour PK properties as compared to hinokitiol
49 | 500 to 1500 | 500 to 1500 | 1.25 to 4.99 | CCc1cccc(C)c(=O)c1O [Ex. 27, 7-ethyl-2-hydroxy-3-methylcyclohepta-2,4,6-trien-1-one] | one or more improved mouse 6-hour PK properties as compared to hinokitiol
50 | < 499 | < 499 | 1.25 to 4.99 | Cc1cc(C(C)C)ccc(O)c1=O [Ex. 28, 7-hydroxy-4-isopropyl-2-methylcyclohepta-2,4,6-trien-1-one] | one or more improved mouse 6-hour PK properties as compared to hinokitiol
51 | < 499 | < 499 | 5 to 9.99 | Cc1cccc(C(C)C)c(O)c1=O [Ex. 30, 2-hydroxy-3-isopropyl-7-methylcyclohepta-2,4,6-trien-1-one] | one or more improved mouse 6-hour PK properties as compared to hinokitiol
52 | > 20000 | 5000 to 20000 | 1.25 to 4.99 | O=c1c(O)cc(C2CC2)ccc1F [Ex. 34, 4-cyclopropyl-7-fluoro-2-hydroxycyclohepta-2,4,6-trien-1-one] | one or more improved mouse 6-hour PK properties as compared to hinokitiol
53 | 500 to 1500 | < 499 | < 1.25 | O=c1ccccc(OC2CC3(CC3)C2)c1O [Ex. 82, 2-hydroxy-3-(spiro[2.3]hexan-5-yloxy)cyclohepta-2,4,6-trien-1-one] | one or more improved mouse 6-hour PK properties as compared to hinokitiol
54 | 500 to 1500 | 1500 to 5000 | < 1.25 | O=c1ccccc(OCC2CC2)c1O [Ex. 83, 3-(cyclopropylmethoxy)-2-hydroxycyclohepta-2,4,6-trien-1-one] | one or more improved mouse 6-hour PK properties as compared to hinokitiol
